Assay results as given in patent US4539331A, “Imidazole carboxamide derivatives and pharmaceutical compositions thereof” (priority 1981, dated 1985).
Like-named read-outs stand apart in the source and are kept apart here.

Legend:
[1] = tested on: writhing; assay: writhing test (analgesic activity); type: in vivo, mouse; details: for ED50: Mus musculus, ip
[2] = tested on: beer yeast induced fever; assay: beer yeast induced fever (antipyretic activity); type: in vivo
[3] = tested on: gastric mucous; type: in vivo, rat
Description: In the gastric tolerance test, the product was compared with aspirin and phenylbutazone on the rat, with oral administration.

[4] = solubility; type: physicochemical
[5] = acute toxicity, rat; details: in vivo
Description: (§1) The acute toxicity in the rat and mouse is low

[6] = acute toxicity, mouse; details: in vivo
Description: as §1

[7] = tested on: carrageenin oedema; assay: carrageenin oedema method (anti-inflammatory activity); type: in vivo; details: Rattus norvegicus; oral

With `CC(=O)Oc1ccccc1C(=O)O` [Aspirin, reference compound] the ED50 [1] was 45 mg/kg, the ED50 ([2]; po) was 140 mg/kg and the gastric alterations ([3]; oral, 1000 mg/kg) was “haemorrhage spots, congestion and oedema”.
For `Cc1ccc(NC(=O)c2nc[nH]c2C)cc1Cl` [Example 1, N-(3-chloro-4-methylphenyl)-5-methyl-4-imidazolecarboxamide], the solubility in acetone ([4]; acetone) was “soluble”, the “solubility in an acid aqueous medium” value ([4]; acid aqueous medium) was “sparingly soluble” and the solubility in chloroform ([4]; chloroform) was “moderately soluble”. For the same compound, the solubility in ethanol ([4]; ethanol) was “soluble”, the solubility in isopropanol ([4]; isopropanol) was “soluble” and the solubility in methanol ([4]; methanol) was “soluble”. For the same compound, the solubility in toluene ([4]; toluene) was “insoluble”, the solubility in water ([4]; water) was “insoluble” and the ED50 ([1]; read-out: ED50) was 30 mg/kg. The “analgesic action relative to aspirin” value ([1]; relative to aspirin) was 1.5 times, the LD50 ([5]; ip) was 560 mg/kg and the LD50 ([5]; oral) was over 12000 mg/kg. The ED50 ([2]; oral, read-out: ED50) was 48 mg/kg, the “antipyretic activity relative to aspirin” value ([2]; relative to aspirin) was “three times that of aspirin” and the “antipyretic activity relative to pyramidon” value ([2]; relative to pyramidon) was “slightly superior to that of pyramidon”. For the same compound, the LD50 ([6]; ip) was 700 mg/kg, the LD50 ([6]; oral) was over 8000 mg/kg and the ED50 [7] was 60 mg/kg.
Compound `COc1ccc(Cl)cc1NC(=O)c1nc[nH]c1C` [Example 5a, N-(5-chloro-2-methoxyphenyl)-5-methyl-4-imidazolecarboxamide] has an ED50 [7] of 78 mg/kg.
`Cc1cc(NC(=O)c2nc[nH]c2C)ccc1[N+](=O)[O-]` [Example 5b, N-(3-methyl-4-nitrophenyl)-5-methyl-4-imidazolecarboxamide] showed an ED50 ([1]; read-out: ED50) of 35 mg/kg and an ED50 ([2]; oral, read-out: ED50) of 58 mg/kg.
With `Cc1ccc(F)cc1NC(=O)c1nc[nH]c1C` [Example 5c, N-(5-fluoro-2-methylphenyl)-5-methyl-4-imidazolecarboxamide] the ED50 ([1]; read-out: ED50) was 50 mg/kg.
With `Cc1[nH]cnc1C(=O)Nc1ccc(Cl)c([N+](=O)[O-])c1` [Example 5h, N-(4-chloro-3-nitrophenyl)-5-methyl-4-imidazolecarboxamide] the ED50 ([1]; read-out: ED50) was 33 mg/kg.
In the case of `CCCCC1C(=O)N(c2ccccc2)N(c2ccccc2)C1=O` [Phenylbutazone, reference compound], the ED50 [7] is reported as 45 mg/kg and the gastric alterations ([3]; rat, in vivo, po, 200 mg/kg) is reported as “haemorrhage spots, congestion and oedema”.
`Cc1c(N(C)C)c(=O)n(-c2ccccc2)n1C` [Pyramidon, reference compound] gave an ED50 ([2]; oral, read-out: ED50) of 55 mg/kg.
